US20220289698A1, “INHIBITORS OF HUMAN ATGL” (Karl-Franzens-Universität Graz, priority 2019, published 2022)
Where two headings read alike, the source gives them in different places.

Experiments:
[1] = target: T1, human ATGL (Homo sapiens, UniProt Q96AD5); test: TG hydrolase activity, Expi cell lysates expressing human ATGL + CGI-58, radiolabelled triolein; type: biochemical
T1 construct: made in house; host or cells: Expi cells (lysate, not purified)
T1 sequence (Q96AD5 1-504): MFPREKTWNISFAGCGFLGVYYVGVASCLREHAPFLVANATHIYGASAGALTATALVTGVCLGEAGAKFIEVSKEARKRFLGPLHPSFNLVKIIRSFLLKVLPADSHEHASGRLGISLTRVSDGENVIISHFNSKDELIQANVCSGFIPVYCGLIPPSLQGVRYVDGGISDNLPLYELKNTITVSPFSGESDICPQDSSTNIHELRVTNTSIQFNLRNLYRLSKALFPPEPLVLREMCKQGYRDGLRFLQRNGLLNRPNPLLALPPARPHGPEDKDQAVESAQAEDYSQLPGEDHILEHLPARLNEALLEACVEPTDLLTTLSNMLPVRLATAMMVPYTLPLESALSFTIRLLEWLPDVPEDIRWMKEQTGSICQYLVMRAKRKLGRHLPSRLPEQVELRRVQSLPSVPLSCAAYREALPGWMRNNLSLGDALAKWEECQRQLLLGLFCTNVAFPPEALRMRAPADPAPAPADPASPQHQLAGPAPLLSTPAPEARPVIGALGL
Protocol: (§1) Triglyceride (TG) hydrolase activity was measured as previously described (Schweiger M et al., Methods in Enzymology, 2014, 538:171-93). In brief, TG hydrolase activity was determined by adding recombinant purified CGI-58 to Expi cell lysates expressing human ATGL. For determination of cross-species reactivity Expi lysates expressing ATGL from different model organisms (e.g. mouse, rat, rhesus monkey, goat, etc.) were used. Samples were incubated with DMSO (carrier) or increasing concentrations of ATGL inhibitors dissolved in DMSO. TG substrate was prepared by emulsifying 330 μM radiolabelled triolein (40,000 c.p.m./nmol) and 45 μM phosphatidylcholine/phosphatidylinositol (3:1) in 100 mM potassium phosphate buffer (pH 7.0) by sonication and adjusting to 5% essentially FA-free BSA. TG substrate was added to the reaction mixture and incubated for 1 h at 37° C. in the water bath. The reaction was terminated by adding methanol/chloroform/heptane (10:9:7) and 0.1 M potassium carbonate with 0.1 M boric acid (pH 10.5). After centrifugation at 800 g for 15 min the radioactivity in the upper phase was determined by liquid scintillation counting and the rate of FA hydrolysis was calculated. IC50 values were determined as inhibitor concentration capable of inhibiting TG hydrolase activity by 50% as compared to DMSO control. Samples were measured as duplicates. The determination of IC50 values for human ATGL is illustrated in FIG. 1.

[2] = target: T2, murine ATGL (Mus musculus, UniProt Q8BJ56); test: TG hydrolase activity, Expi lysates expressing mouse ATGL + CGI-58, radiolabelled triolein; type: biochemical
T2 construct: made in house; host or cells: Expi cells (lysate)
T2 sequence (Q8BJ56 1-486): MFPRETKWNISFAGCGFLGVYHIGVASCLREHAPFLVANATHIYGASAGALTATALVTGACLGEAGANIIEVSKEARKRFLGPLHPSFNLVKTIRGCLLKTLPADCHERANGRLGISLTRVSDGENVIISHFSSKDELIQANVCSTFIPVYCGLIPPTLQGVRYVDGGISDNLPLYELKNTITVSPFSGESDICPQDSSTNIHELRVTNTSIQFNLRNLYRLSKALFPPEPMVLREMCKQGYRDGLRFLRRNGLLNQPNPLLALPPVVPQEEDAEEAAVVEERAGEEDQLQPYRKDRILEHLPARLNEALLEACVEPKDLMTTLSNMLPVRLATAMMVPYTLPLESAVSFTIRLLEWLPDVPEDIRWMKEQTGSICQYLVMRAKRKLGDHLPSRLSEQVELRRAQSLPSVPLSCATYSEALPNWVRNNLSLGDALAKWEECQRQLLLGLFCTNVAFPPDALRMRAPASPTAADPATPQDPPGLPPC
Protocol: as §1
Lysates from Expi cells overexpressing ATGL from mouse (Mus musculus) were incubated with recombinant purified ATGL co-activator CGI-58 and ATGL inhibitors at 50 μM. Subsequently, substrate containing radiolabeled triolein was added and liberated FA were extracted and quantified by liquid scintillation. Inhibitors were dissolved in DMSO which was used as control. Samples were measured in triplicates.

[3] = Example 237, read-out: Inhibition of human ATGL − IC50
[4] = 50 μM compound, Example 237, read-out: Inhibition of murine ATGL at 50 μM − mean [%]
[5] = Example 238, read-out: Inhibition of human ATGL IC50
[6] = 50 μM, Example 238, read-out: % Inhibition of murine ATGL at 50 μM

IC50 [1, 3] [µM] | inhibition at 50 µM [2, 4] [%] | IC50 [1, 5] [µM] | inhibition at 50 µM [2, 6] [%] | inhibition at 50 µM ([2]; 50 μM, overview table, read-out: mouse ATGL inhibition [% inhibition at 50 μM]) [%] | Structure (SMILES)
8 | 2.1 |  |  |  | CCOc1ccc(-c2nc(C(=O)OC)cs2)cc1 [Example 122, Methyl 2-(4-ethoxyphenyl) thiazole-4-carboxylate]
12 | 41.2 |  |  |  | C/C=C/COC(=O)c1csc(-c2ccc(OCC)cc2)n1 [Example 121, (E)-but-2-en-1-yl 2-(4-ethoxyphenyl)thiazole-4-carboxylate]
5 | 6.3 |  |  |  | CCOc1ccc(-c2nc(C(=O)OC(C)(C)C)cs2)cc1 [Example 150, tert-Butyl 2-(4-ethoxyphenyl)thiazole-4-carboxylate]
5 | 42.2 |  |  |  | CCOc1ccc(-c2nc(C(=O)OCc3ccco3)cs2)cc1 [Example 153, Furan-2-ylmethyl 2-(4-ethoxyphenyl)thiazole-4-carboxylate]
6 | 24.6 |  |  |  | C=CCOc1ccc(-c2nc(C(=O)OCC)cs2)cc1 [Example 113, Ethyl 2-(4-(allyloxy)phenyl)thiazole-4-carboxylate]
6 | 5.1 |  |  |  | CCOc1ccc(-c2nc(C(=O)OC3CCC3)cs2)cc1 [Example 129, Cyclobutyl 2-(4-ethoxyphenyl)thiazole-4-carboxylate]
 |  | 10 | 59 |  | C#CCC(C)OC(=O)c1csc(-c2ccc(OCC)cc2)n1 (stereo not shown) [Example 208, Pont-4-yn-2-yl 2-(4-ethoxyphenyl)thiazole-4-carboxylate]
5 | 0 |  |  |  | CCOc1ccc(-c2nc(C(=O)OC3CCCC3)cs2)cc1 [Example 127, Cyclopentyl 2-(4-ethoxyphenyl)thiazole-4-carboxylate]
2.5 | 12.1 |  |  |  | CCOc1ccc(-c2nc(C(=O)OC3CC3)cs2)cc1 [Example 151, Cyclopropyl 2-(4-ethoxyphenyl)thiazole-4-carboxylate]
3 | 5.8 |  |  |  | CCOc1ccc(-c2nc(C(=O)OC(CF)CF)cs2)cc1 [Example 135, 1,3-Difluoropropan-2-yl 2-(4-ethoxyphenyl)thiazole-4-carboxylate]
3 | 30 |  |  |  | C=CCOC(=O)c1csc(-c2ccc(OCC)cc2)n1 [Example 147, Allyl 2-(4-ethoxyphenyl)thiazole-4-carboxylate]
25 | 0 |  |  |  | CCCCCOc1ccc(-c2nc(C(=O)OCC)cs2)cc1 [Example 110, Ethyl 2-(4-(pentyloxy)phenyl)thiazole-4-carboxylate]
3 | 7 |  |  |  | CCOc1ccc(-c2nc(C(=O)OC(C)CC)cs2)cc1 (stereo not shown) [Example 114, sec-Butyl 2-(4-ethoxyphenyl)thiazole-4-carboxylate]
25 | 0 |  |  |  | CCCCCCOc1ccc(-c2nc(C(=O)OCC)cs2)cc1 [Example 111, Ethyl 2-(4-(hexyloxy)phenyl)thiazole-4-carboxylate]
12 | 0 |  |  |  | CCOc1ccc(-c2nc(C(=O)OCC(F)(F)F)cs2)cc1 [Example 116, 2,2,2-Trifluoroethyl 2-(4-ethoxyphenyl)thiazole-4-carboxylate]
 |  | 20 | 77 |  | CCOc1ccc(-c2nc(C(=O)OCc3cncs3)cs2)cc1 [Example 217, Thiazol-5-ylmethyl-2-(4-ethoxyphenyl)thiazole-4-carboxylate]
15 | 0 |  |  |  | CCOc1ccc(-c2nc(C(=O)O[C@H]3CCC[C@H]3C)cs2)cc1 [Example 139, (1S,2R)-2-Methylcyclopentyl 2-(4-ethoxyphenyl)thiazole-4-carboxylate]
5 | 8 |  |  |  | CCOC(=O)c1csc(-c2ccc(OCC(F)(F)F)cc2)n1 [Example 108, Ethyl 2-(4-(2,2,2-trifluoroethoxy)phenyl)thiazole-4-carboxylate]
25 | 0 |  |  |  | CCOc1ccc(-c2nc(C(=O)OC(C)(C)CC)cs2)cc1 [Example 118, tert-Pentyl 2-(4-ethoxyphenyl)thiazole-4-carboxylate]
3 | 10.6 |  |  | 20 | CCOc1ccc(-c2nc(C(=O)OC(C)C)cs2)cc1 [Example 123, Isopropyl 2-(4-ethoxyphenyl) thiazole-4-carboxylate]

Continued, molecule first:

Structure (SMILES) | IC50 [1, 3] [µM] | inhibition at 50 µM [2, 4] [%] | IC50 [1, 5] [µM] | inhibition at 50 µM [2, 6] [%] | inhibition at 50 µM ([2]; 50 μM, overview table, read-out: mouse ATGL inhibition [% inhibition at 50 μM]) [%]
CCOC(=O)c1csc(-c2ccc(SC)cc2)n1 [Example 99, Ethyl 2-(4-(methylthio)phenyl)thiazole-4-carboxylate] | 12 | 37.3 |  |  | 
CCOC(=O)c1csc(-c2ccc(N(C)C)cc2)n1 [Example 103, Ethyl 2-(4-(dimethylamino)phenyl)thiazole-4-carboxylate] | 25 | 33.9 |  |  | 
CCCCOc1ccc(-c2nc(C(=O)OCC)cs2)cc1 [Example 109, Ethyl 2-(4-butoxyphenyl)thiazole-4-carboxylate] | 10 | 0 |  |  | 
CC(C)OC(=O)c1cccc(-c2ccccc2)n1 [Example 24] | 25 | 38 |  |  | 
CCOC(=O)c1csc(-c2ccc(OC(C)CC)cc2)n1 (stereo not shown) [Example 112, Ethyl 2-(4-(sec-butoxy)phenyl)thiazole-4-carboxylate] | 10 | 1.3 |  |  | 
CCC(C)c1ccc(-c2cc(OC)cc(C(=O)OC(C)C)n2)cc1 (stereo not shown) [Example 56] | 7 | 0 |  |  | 
CCOC(=O)c1nc(-c2ccc(OCC)cc2)sc1C [Example 124, Ethyl 2-(4-ethoxyphenyl)-5-methylthiazole-4-carboxylate] | 17 | 33.7 |  |  | 
CCOc1ccc(-c2nc(C(=O)OC3CCCCC3)cs2)cc1 [Example 133, Cyclohexyl 2-(4-ethoxyphenyl)thiazole-4-carboxylate] | 25 | 0 |  |  | 
CC(C)OC(=O)c1cccc(-c2ccc(C(=O)N(C)C)cc2)n1 [Example 42] | 10 | 6.2 |  |  | 
CCOC(=O)c1csc(-c2ccc(OCC(C)C)cc2)n1 [Example 104, Ethyl 2-(4-isobutoxyphenyl)thiazole-4-carboxylate] | 12 | 0 |  |  | 
CCOc1ccc(-c2nc(C(=O)OC(C)C)c(OC(C)C)s2)cc1 [Example 177] | 25 | 0 |  |  | 
CC(C)OC(=O)c1cccc(CCc2ccccc2)n1 [Example 80] | 50 | 3.4 |  |  | 
CC(C)OC(=O)c1cccc(-c2ccc(F)cc2)n1 [Example 25] | 8 | 10.9 |  |  | 
CCOC(=O)c1nc(-c2ccc(OCC)cc2)sc1Cl [Example 125, Ethyl 5-chloro-2-(4-ethoxyphenyl)thiazole-4-carboxylate] | 25 | 11.1 |  |  | 
CON(C)C(=O)c1ccc(-c2cccc(C(=O)OC(C)C)n2)cc1 [Example 77] | 5 | 0 |  |  | 
CCOC(=O)c1csc(-c2ccc(SC(C)C)cc2)n1 [Example 100] | 20 | 0 |  |  | 
